Here are results for 1 substance from paper PMC12406195, “Understanding the Modes of Action of β‑Ketoiminato Iridium(III) Complexes in Cancer Cells” (Inorganic Chemistry, 2025).

What all share (assay type): cell-based, human
The test system of test [1] is MDA-MB-231 cells. The test is described as follows: Chemosensitivity (MTT cell viability) assay, MDA-MB-231. To be noted: for IC50: n = 9. Here is the method:
(§1) All cytotoxicity assays were conducted using human cell lines: breast adenocarcinomas (MDA-MB-231 and MCF-7), pancreatic carcinoma (MIA PaCa-2) and non-cancerous epithelial retinal (ARPE-19) cell lines. All cell lines were routinely maintained as monolayer cultures in appropriate complete media:
(§2) MCF-7, MIA PaCa-2 and ARPE-19 in high glucose DMEM and MDA-MB-231 in RPMI-1640, and both media were supplemented with 10% FBS, 1 mM sodium pyruvate, 2 mM L-glutamine, and 1% pen-strep. All cells were initially grown in T-25 or T-75 flasks at 37 °C and 5% CO2. Before chemosensitivity studies, cell monolayers were passaged using trypsin-EDTA (0.05%) and diluted to a concentration of 1 x 10^4 cells/mL (or 4 x 10^4 cells mL for 24 h assays). All assays were conducted in 96-well plates, in which 100 µL of the cell suspension was added for 24 h at 37 °C and 5% CO2, and then 100 µL of compound/medium dilutions for a further 96 h (or 24 h). All compound stocks were made using sterile DMSO at 100 mM before dilution, and a maximum of 0.1% DMSO was used in each assay. After incubation, 3-(4,5-dimethylthiazol-2-yl)-2,5-diphenyltetrazolium bromide (20 µL, 5 mg/mL in PBS) was added to each well and incubated for 3 h at 37°C and 5% CO2. All solutions were then aspirated, DMSO (150 µL) added to each well, gently mixed, and the absorbance was measured at 540 nm using a ClarioStar spectrophotometer microplate reader. Results were plotted on a logarithmic scale, and the half maximal inhibitory concentration (IC50) was determined from a triplicate of triplicate repeats (n = 9) and reported as an IC 50 ± Standard Deviation (SD).

Test [2] concerns MIA PaCa-2 cells. The test is described as follows: Chemosensitivity (MTT cell viability) assay, MIA PaCa-2. Here is the method: as §1, §2
Test [3] deals with ARPE-19 cells. The test is described as follows: Chemosensitivity (MTT cell viability) assay, noncancerous ARPE-19. The settings on record: ARPE-19 noncancerous, 96 h, n = 9. On the procedure: The cytotoxicity of the compounds against the cancer cell lines was also compared to the noncancerous retinal epithelial cell line, ARPE-19, to determine the possibility of cancer cell selectivity. […]
as §1, §2

The test system of test [4] is MDA-MB-231 cells. The test is described as follows: Nuclei morphology assay (DAPI). To be noted: MDA-MB-231, 48 h. The source says: The potential of compound 1 to trigger apoptosis in breast cancer cells was then studied. […] High-magnification insets (1–6) illustrate representative nuclear morphologies captured in the assay. Condensed, hyperintense nuclei with reduced area (e.g., images 1, 2 and 3), irregular nuclear blebs with discontinuous chromatin (e.g., images 3 and 4), and fragmented chromatin consistent with apoptotic bodies (e.g., images 5 and 6).
7 Microscopic visualization of nuclear morphology changes in MDA-MB-231 breast cancer cells after 48 h exposure to compound 1 or CDDP. […] Images were acquired using a Leica DMI8 fluorescence microscope at 40× magnification. […]
MDA-MB-231 cells at 4000 cells/well were seeded into a black clear -bottom 96-well plate using phenol-red free complete RMPI medium, and incubated for 48 h. […] Fluorescence images were obtained using a Zeiss Observer 7 inverted microscope at excitation at 488 nm and emission at 509 […]
Plasmid DNA (200 ng, pBOS -H2B-GFP, BD Biosciences) was incubated overnight at room temperature with 1 or CDDP at concentrations between 100 and 400 μM in double -distilled H2O (20 μL total volume). […] The experiment was conducted in two biological replicates, and the band intensities were quantified and analyzed using ImageJ software. […]

Consider “[Cp*Ir(C16H14NO)(PTA)](PF6) [Compound 1]”, for which the IC50 turned out to be 18 ± 1 µM in test [1] (MDA-MB-231, 24 h); 6.3 ± 0.7 µM in test [1] (MDA-MB-231, 96 h); 9 ± 1 µM in test [2] (MIA PaCa-2, 96 h, n = 9); 10.4 ± 0.7 µM in test [3]. Besides, the “Selectivity index (SI)” value in test [1] (MDA-MB-231 compared to ARPE-19, 96 h) is given as 1.7; in test [2] (MIA PaCa-2 compared to ARPE-19, 96 h), 1.2. Besides, the Nuclear morphology result in test [4] is “typical apoptotic features like DNA fragmentation and condensation”.

For orientation: IC50 means the concentration that inhibits the measured activity by half. Low values mean greater potency in that assay, high ones weaker potency in that assay.
